Results reported in patent US20050148656A1, “Carboxylic derivates” (priority 2003, published 2005).

Key:
[1] = target: T1, human PPARα (Homo sapiens, UniProt Q07869); experiment: Luciferase reporter assay in transiently transfected cells, PPARα activation; assay type: cell-based; conditions: 50% of maximal activation obtained by reference compound (ETYA); about 24 hours exposure
T1 construct: expressed in transfected cells
T1 sequence (Q07869 1-468): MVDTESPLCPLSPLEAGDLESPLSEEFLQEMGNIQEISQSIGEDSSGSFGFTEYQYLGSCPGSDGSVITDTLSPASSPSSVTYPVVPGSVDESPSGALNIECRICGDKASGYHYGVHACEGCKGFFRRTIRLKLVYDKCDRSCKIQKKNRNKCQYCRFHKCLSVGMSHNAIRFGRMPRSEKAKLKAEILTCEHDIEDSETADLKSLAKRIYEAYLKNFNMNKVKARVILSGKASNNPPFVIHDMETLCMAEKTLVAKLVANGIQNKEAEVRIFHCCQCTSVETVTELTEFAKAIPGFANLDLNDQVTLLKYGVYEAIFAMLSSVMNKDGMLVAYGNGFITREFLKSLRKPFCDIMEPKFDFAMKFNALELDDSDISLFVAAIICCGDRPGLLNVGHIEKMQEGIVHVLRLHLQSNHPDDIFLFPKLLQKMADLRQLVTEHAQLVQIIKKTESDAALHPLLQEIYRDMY
Procedure: (§1) The compounds of the invention were tested in the assays described in WO 03/051821.
(§2) Stock solutions of compounds in DMSO were diluted in appropriate concentration ranges in master plates. From master plates, compounds were diluted in culture media to obtain test compound solutions for final doses.
(§3) After adjustment of the amount of cell medium to 75 μl in each well, 50 μl test compound solution was added. Transiently transfected cells were exposed to compounds for about 24 hours before the luciferase detection assay was performed. For luciferase assays, 100 μl of assay reagent was added manually to each well and plates were left for approximately 20 minutes in order to allow lysis of the cells. After lysis, luciferase activity was measured in a 1420 Multiwell counter, Victor, from Wallach.
(§4) The TZD pioglitazone was used as reference substance for activation of both human and murine PPARγ. 5,8,11,14-Eicosatetrayonic acid (ETYA) was used as reference substance for human PPARα.
(§5) For calculation of EC50 values, a concentration-effect curve was established. Values used were derived from the average of two or three independent measurements (after subtraction of the background average value) and were expressed as the percentage of the maximal activation obtained by the reference compound. Values were plotted against the logarithm of the test compound concentration. EC50 values were estimated by linear […] between the data points and calculating the concentration required to achieve 50% of the maximal activation obtained by the reference compound.

[2] = tested on: PPARγ; experiment: Luciferase reporter assay in transiently transfected cells, PPARγ activation; assay type: cell-based, human and murine
Procedure: as §1, §2, §3, §4, §5

SMILES	EC50 [1]	ratio EC50 (PPARγ):EC50 (PPARα) [2]
CCO[C@@H](Cc1ccc(OCC(=O)N(Cc2ccc(Cl)cc2)Cc2ccc(Cl)cc2)cc1)C(=O)O [Example 12, (2S)-3-(4-{2-[bis(4-Chlorobenzyl)amino]-2-oxoethoxy}phenyl)-2-ethoxypropanoic acid]	3 nM	>1000
CCO[C@@H](Cc1ccc(OCC(=O)N(Cc2ccc(Cl)cc2)Cc2ccc(C(C)(C)C)cc2)cc1)C(=O)O [Example 13, (2S)-3-(4-{2-[(4-tert-Butylbenzyl)(4-chlorobenzyl)amino]-2-oxoethoxy}phenyl)-2-ethoxypropanoic acid]	8 nM	>400
CCO[C@@H](Cc1ccc(OCC(=O)N(Cc2ccc(C(F)(F)F)cc2)Cc2ccc(C(F)(F)F)cc2)cc1)C(=O)O [Example 15, (2S)-3-[4-(2-{bis[4-(Trifluoromethyl)benzyl]amino}-2-oxoethoxy)phenyl]-2-ethoxypropanoic acid]	3 nM	>900
